Data published in patent publication US20250206727A1, “HETEROCYCLIC SUBSTITUTED AROMATIC COMPOUND, PREPARATION METHOD THEREFOR, HERBICIDAL COMPOSITION AND APPLICATION” (QINGDAO KINGAGROOT CHEMICAL COMPOUND CO., LTD., priority 2022, published 2025).

Columns and labels:
Experiment in all cases: Post-emergence test on weeds (greenhouse, spray at 2-3 leaf stage)
Format in all cases: in vivo
Design in all cases: key: Level 10: completely dead; Level 9: growth control rate greater than or equal to 90% and less than 100%; Level 8: growth control rate greater than or equal to 80% and less than 90%; Level 7: growth control rate greater than or equal to 70% and less than 80%; Level 6: growth control rate greater than or equal to 60% and less than 70%; Level 5: growth control rate greater than or equal to 50% and less than 60%; Level 4: growth control rate greater than or equal to 40% and less than 50%; Level 3: growth control rate greater than or equal to 30% and less than 40%; Level 2: growth control rate greater than or equal to 20% and less than 30%; Level 1: growth control rate less than 20%; Level 0: no effect
Conditions in all cases: 3 weeks after application
Abutilon theophrasti = test system: Abutilon theophrasti
Description: (§1) The activity level criteria for plant damage (i.e., growth control rate) are as follows: • Level 10: completely dead; • Level 9: growth control rate greater than or equal to 90% and less than 100%; • Level 8: growth control rate greater than or equal to 80% and less than 90%; • Level 7: growth control rate greater than or equal to 70% and less than 80%; • Level 6: growth control rate greater than or equal to 60% and less than 70%; • Level 5: growth control rate greater than or equal to 50% and less than 60%; • Level 4: growth control rate greater than or equal to 40% and less than 50%; • Level 3: growth control rate greater than or equal to 30% and less than 40%; • Level 2: growth control rate greater than or equal to 20% and less than 30%; • Level 1: growth control rate less than 20%; • Level 0: no effect.
(§2) The above growth control rates are fresh weight control rates.
(§3) Monocotyledonous and dicotyledonous weed seeds (Descurainia sophia, Capsella bursa-pastoris, Abutilon theophrasti, Galium spurium, Stellaria media, Lithospermum arvense, Rorippa indica, Alopecurus aequalis, Alopecurus japonicus, Eleusine indica, Beckmannia syzigachne, Sclerochloa dura, Erigeron canadensis, Phleum paniculatum, Veronica polita, Bromus japonicus, Aegilops tauschii, Phalaris arundinacea, Amaranthus retrofexus, Chenopodium, Commelina communis, Cichorium endivia, Convolvulus arvensis, Cirsium arvense, Solanum nigrum, Acalypha australis, Digitaria sanguinalis, Echinochloa crus-galli, Setaria viridis, Setaa pumila, Lepochloa chinensis, Monochona vaginalis, Sagitta trifolia, Schoenoplectiella juncoides, Cypenus rotundus, Cyperus ira, Cyperus difformis, Fimbristylis, Portulaca oleracea, Xanthium sibiricum, Ipomoea nil, Eschenbachia japonica, etc.) and major crop seeds (wheat, maize, paddy rice, soybean, cotton, oilseed rape, millet, sorghum, potato, sesame, castor plant, etc.) were placed in plastic pots filled with soil and then covered with 0.5-2 cm of soil to allow them to grow in a favorable greenhouse environment. Two weeks after sowing, the test plants were treated at the stage of 2-3 leaves. The test compounds of the present invention were individually dissolved with acetone, then added with Tween® 80, with 1.5 L/ha of methyl oleate emulsifiable concentrate as a synergist, diluted into solutions of certain concentrations using certain amount of water, and sprayed to the plants using a spray tower. After drug application, the experimental results on weeds were collected after 3 weeks of cultivation in a greenhouse. The compounds were applied at 500, 250, […], 15, and 7.5 g a.i./ha in triplicate, and the results were averaged.

Amaranthus retroflexus = test system: Amaranthus retroflexus
Description: as §1, §2, §3

Digitaria sanguinalis = test system: Digitaria sanguinalis
Description: as §1, §2, §3

Echinochloa crus-galli = test system: Echinochloa crus-galli
Description: as §1, §2, §3

Setaria viridis = test system: Setaria viridis
Description: as §1, §2, §3

Veronica polita = test system: Veronica polita
Description: as §1, §2, §3

COC(=O)C1(C)ON=C(c2cc(-c3ncc(C)cc3Cl)c(F)cc2Cl)O1 (stereo not drawn) [Compound 12]
10: activity level (fresh weight growth control rate), Abutilon theophrasti (Abutilon theophrasti; 60 g a.i./ha) | activity level (fresh weight growth control rate), Amaranthus retroflexus (Amaranthus retroflexus; 60 g a.i./ha) | activity level (fresh weight growth control rate), Digitaria sanguinalis (Digitaria sanguinalis; 60 g a.i./ha) | activity level (fresh weight growth control rate), Echinochloa crus-galli (Echinochloa crus-galli; 60 g a.i./ha) | activity level (fresh weight growth control rate), Setaria viridis (Setaria viridis; 60 g a.i./ha) | activity level (fresh weight growth control rate), Veronica polita (Veronica polita; 60 g a.i./ha)

COC(=O)C1(C)ON=C(c2cc(-c3ncc(Cl)cc3F)c(F)cc2Cl)O1 (stereo not drawn) [Compound 13]
10: activity level (fresh weight growth control rate), Abutilon theophrasti (Abutilon theophrasti; 60 g a.i./ha) | activity level (fresh weight growth control rate), Amaranthus retroflexus (Amaranthus retroflexus; 60 g a.i./ha) | activity level (fresh weight growth control rate), Digitaria sanguinalis (Digitaria sanguinalis; 60 g a.i./ha) | activity level (fresh weight growth control rate), Echinochloa crus-galli (Echinochloa crus-galli; 60 g a.i./ha) | activity level (fresh weight growth control rate), Setaria viridis (Setaria viridis; 60 g a.i./ha) | activity level (fresh weight growth control rate), Veronica polita (Veronica polita; 60 g a.i./ha)

COC(=O)C1(C)ON=C(c2cc(-c3ncc(F)cc3Cl)c(F)cc2Cl)O1 (stereo not drawn) [Compound 14]
10: activity level (fresh weight growth control rate), Abutilon theophrasti (Abutilon theophrasti; 60 g a.i./ha) | activity level (fresh weight growth control rate), Amaranthus retroflexus (Amaranthus retroflexus; 60 g a.i./ha) | activity level (fresh weight growth control rate), Digitaria sanguinalis (Digitaria sanguinalis; 60 g a.i./ha) | activity level (fresh weight growth control rate), Echinochloa crus-galli (Echinochloa crus-galli; 60 g a.i./ha) | activity level (fresh weight growth control rate), Setaria viridis (Setaria viridis; 60 g a.i./ha) | activity level (fresh weight growth control rate), Veronica polita (Veronica polita; 60 g a.i./ha)

COC(=O)C1(C)ON=C(c2cc(-c3ncc(C(F)(F)F)cc3Cl)c(F)cc2Cl)O1 (stereo not drawn) [Compound 15]
10: activity level (fresh weight growth control rate), Abutilon theophrasti (Abutilon theophrasti; 15 g a.i./ha) | activity level (fresh weight growth control rate), Amaranthus retroflexus (Amaranthus retroflexus; 15 g a.i./ha) | activity level (fresh weight growth control rate), Digitaria sanguinalis (Digitaria sanguinalis; 15 g a.i./ha) | activity level (fresh weight growth control rate), Echinochloa crus-galli (Echinochloa crus-galli; 15 g a.i./ha) | activity level (fresh weight growth control rate), Setaria viridis (Setaria viridis; 15 g a.i./ha) | activity level (fresh weight growth control rate), Veronica polita (Veronica polita; 15 g a.i./ha)

CCC1(C(=O)OC)ON=C(c2cc(-c3ncc(Cl)cc3F)c(F)cc2Cl)O1 (stereo not drawn) [Compound 16]
10: activity level (fresh weight growth control rate), Abutilon theophrasti (Abutilon theophrasti; 60 g a.i./ha) | activity level (fresh weight growth control rate), Amaranthus retroflexus (Amaranthus retroflexus; 60 g a.i./ha) | activity level (fresh weight growth control rate), Digitaria sanguinalis (Digitaria sanguinalis; 60 g a.i./ha) | activity level (fresh weight growth control rate), Echinochloa crus-galli (Echinochloa crus-galli; 60 g a.i./ha) | activity level (fresh weight growth control rate), Setaria viridis (Setaria viridis; 60 g a.i./ha) | activity level (fresh weight growth control rate), Veronica polita (Veronica polita; 60 g a.i./ha)

CCC1(C(=O)OC)ON=C(c2cc(-c3ncc(C(F)(F)F)cc3Cl)c(F)cc2Cl)O1 (stereo not drawn) [Compound 17]
10: activity level (fresh weight growth control rate), Abutilon theophrasti (Abutilon theophrasti; 60 g a.i./ha) | activity level (fresh weight growth control rate), Amaranthus retroflexus (Amaranthus retroflexus; 60 g a.i./ha) | activity level (fresh weight growth control rate), Digitaria sanguinalis (Digitaria sanguinalis; 60 g a.i./ha) | activity level (fresh weight growth control rate), Echinochloa crus-galli (Echinochloa crus-galli; 60 g a.i./ha) | activity level (fresh weight growth control rate), Setaria viridis (Setaria viridis; 60 g a.i./ha) | activity level (fresh weight growth control rate), Veronica polita (Veronica polita; 60 g a.i./ha)

CCC1(C(=O)OC)ON=C(c2cc(-c3ncc(C(F)(F)F)cc3F)c(F)cc2Cl)O1 (stereo not drawn) [Compound 19]
10: activity level (fresh weight growth control rate), Abutilon theophrasti (Abutilon theophrasti; 60 g a.i./ha) | activity level (fresh weight growth control rate), Amaranthus retroflexus (Amaranthus retroflexus; 60 g a.i./ha) | activity level (fresh weight growth control rate), Digitaria sanguinalis (Digitaria sanguinalis; 60 g a.i./ha) | activity level (fresh weight growth control rate), Echinochloa crus-galli (Echinochloa crus-galli; 60 g a.i./ha) | activity level (fresh weight growth control rate), Setaria viridis (Setaria viridis; 60 g a.i./ha) | activity level (fresh weight growth control rate), Veronica polita (Veronica polita; 60 g a.i./ha)

CCCC1(C(=O)OC)ON=C(c2cc(-c3ncc(C(F)(F)F)cc3Cl)c(F)cc2Cl)O1 (stereo not drawn) [Compound 20]
10: activity level (fresh weight growth control rate), Abutilon theophrasti (Abutilon theophrasti; 60 g a.i./ha) | activity level (fresh weight growth control rate), Amaranthus retroflexus (Amaranthus retroflexus; 60 g a.i./ha) | activity level (fresh weight growth control rate), Digitaria sanguinalis (Digitaria sanguinalis; 60 g a.i./ha) | activity level (fresh weight growth control rate), Echinochloa crus-galli (Echinochloa crus-galli; 60 g a.i./ha) | activity level (fresh weight growth control rate), Setaria viridis (Setaria viridis; 60 g a.i./ha) | activity level (fresh weight growth control rate), Veronica polita (Veronica polita; 60 g a.i./ha)

COC(=O)C1(C2CC2)ON=C(c2cc(-c3ncc(Cl)cc3F)c(F)cc2Cl)O1 (stereo not drawn) [Compound 21]
10: activity level (fresh weight growth control rate), Abutilon theophrasti (Abutilon theophrasti; 60 g a.i./ha) | activity level (fresh weight growth control rate), Amaranthus retroflexus (Amaranthus retroflexus; 60 g a.i./ha) | activity level (fresh weight growth control rate), Digitaria sanguinalis (Digitaria sanguinalis; 60 g a.i./ha) | activity level (fresh weight growth control rate), Echinochloa crus-galli (Echinochloa crus-galli; 60 g a.i./ha) | activity level (fresh weight growth control rate), Setaria viridis (Setaria viridis; 60 g a.i./ha) | activity level (fresh weight growth control rate), Veronica polita (Veronica polita; 60 g a.i./ha)

CCOC(=O)C1ON=C(c2cc(-c3ccc(C(F)(F)F)cn3)c(F)cc2Cl)O1 (stereo not drawn) [Compound 23]
10: activity level (fresh weight growth control rate), Abutilon theophrasti (Abutilon theophrasti; 60 g a.i./ha) | activity level (fresh weight growth control rate), Amaranthus retroflexus (Amaranthus retroflexus; 60 g a.i./ha) | activity level (fresh weight growth control rate), Digitaria sanguinalis (Digitaria sanguinalis; 60 g a.i./ha) | activity level (fresh weight growth control rate), Echinochloa crus-galli (Echinochloa crus-galli; 60 g a.i./ha) | activity level (fresh weight growth control rate), Setaria viridis (Setaria viridis; 60 g a.i./ha) | activity level (fresh weight growth control rate), Veronica polita (Veronica polita; 60 g a.i./ha)

CCOC(=O)C1ON=C(c2cc(-c3ncc(C(F)(F)F)cc3Cl)c(F)cc2Br)O1 (stereo not drawn) [Compound 25]
10: activity level (fresh weight growth control rate), Abutilon theophrasti (Abutilon theophrasti; 60 g a.i./ha) | activity level (fresh weight growth control rate), Amaranthus retroflexus (Amaranthus retroflexus; 60 g a.i./ha) | activity level (fresh weight growth control rate), Digitaria sanguinalis (Digitaria sanguinalis; 60 g a.i./ha) | activity level (fresh weight growth control rate), Echinochloa crus-galli (Echinochloa crus-galli; 60 g a.i./ha) | activity level (fresh weight growth control rate), Setaria viridis (Setaria viridis; 60 g a.i./ha) | activity level (fresh weight growth control rate), Veronica polita (Veronica polita; 60 g a.i./ha)

CCOC(=O)C1ON=C(c2cc(-c3ncc(C(F)(F)F)cc3Cl)c(F)cc2Cl)O1 (stereo not drawn) [Compound 26]
10: activity level (fresh weight growth control rate), Abutilon theophrasti (Abutilon theophrasti; 60 g a.i./ha) | activity level (fresh weight growth control rate), Amaranthus retroflexus (Amaranthus retroflexus; 60 g a.i./ha) | activity level (fresh weight growth control rate), Digitaria sanguinalis (Digitaria sanguinalis; 60 g a.i./ha) | activity level (fresh weight growth control rate), Echinochloa crus-galli (Echinochloa crus-galli; 60 g a.i./ha) | activity level (fresh weight growth control rate), Setaria viridis (Setaria viridis; 60 g a.i./ha) | activity level (fresh weight growth control rate), Veronica polita (Veronica polita; 60 g a.i./ha)

CCOC(=O)C1(C)ON=C(c2cc(-c3ccc(C(F)(F)F)cn3)c(F)cc2Cl)O1 (stereo not drawn) [Compound 29]
10: activity level (fresh weight growth control rate), Abutilon theophrasti (Abutilon theophrasti; 60 g a.i./ha) | activity level (fresh weight growth control rate), Amaranthus retroflexus (Amaranthus retroflexus; 60 g a.i./ha) | activity level (fresh weight growth control rate), Digitaria sanguinalis (Digitaria sanguinalis; 60 g a.i./ha) | activity level (fresh weight growth control rate), Echinochloa crus-galli (Echinochloa crus-galli; 60 g a.i./ha) | activity level (fresh weight growth control rate), Setaria viridis (Setaria viridis; 60 g a.i./ha) | activity level (fresh weight growth control rate), Veronica polita (Veronica polita; 60 g a.i./ha)
